From patent US9611267B2, “Substituted tricyclic compounds as FGFR inhibitors” (Incyte Corporation, priority 2012, dated 2017)

Assays:
Format in all cases: biochemical
FGFR1 = FGFR1 (Homo sapiens (Human), UniProt P11362); assay: FGFR enzymatic assay (FRET peptide phosphorylation), FGFR1; details: FGFR1 enzyme 0.02 nM, ATP 210 μM
Procedure, shortened: (§1)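 IC50 values were obtained from variable-slope sigmoidal dose-response fitting of a FRET read-out of peptide phosphorylation. The buffer, described for FGFR3, was 50 mM HEPES pH 7.5 with MgCl2, EGTA, Tween-20 and DTT.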

FGFR3 = FGFR3 (Homo sapiens (Human), UniProt P22607); assay: FGFR enzymatic assay (FRET peptide phosphorylation), FGFR3; details: FGFR3 enzyme (Millipore), ATP 140 μM
Sequence of FGFR3 (P22607 23-806): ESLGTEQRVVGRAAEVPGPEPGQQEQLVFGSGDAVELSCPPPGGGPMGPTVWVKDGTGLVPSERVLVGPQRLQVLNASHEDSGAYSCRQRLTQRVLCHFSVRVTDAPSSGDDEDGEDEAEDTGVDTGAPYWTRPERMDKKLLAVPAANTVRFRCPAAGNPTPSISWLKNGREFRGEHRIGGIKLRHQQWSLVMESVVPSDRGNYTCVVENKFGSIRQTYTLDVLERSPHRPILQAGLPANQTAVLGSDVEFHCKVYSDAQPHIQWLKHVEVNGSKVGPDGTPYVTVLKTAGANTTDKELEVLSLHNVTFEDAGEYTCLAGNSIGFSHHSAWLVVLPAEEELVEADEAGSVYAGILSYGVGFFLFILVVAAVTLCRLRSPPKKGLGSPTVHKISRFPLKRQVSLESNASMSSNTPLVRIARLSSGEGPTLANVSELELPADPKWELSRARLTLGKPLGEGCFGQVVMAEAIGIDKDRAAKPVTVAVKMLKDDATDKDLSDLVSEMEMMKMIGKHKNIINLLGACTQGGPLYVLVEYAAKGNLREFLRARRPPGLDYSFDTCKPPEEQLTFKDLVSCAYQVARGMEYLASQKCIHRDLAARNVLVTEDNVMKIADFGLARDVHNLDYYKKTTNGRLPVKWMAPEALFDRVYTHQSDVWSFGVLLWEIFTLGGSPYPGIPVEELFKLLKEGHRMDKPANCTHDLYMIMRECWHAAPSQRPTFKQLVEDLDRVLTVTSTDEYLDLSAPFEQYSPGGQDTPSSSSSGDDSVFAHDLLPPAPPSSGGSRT
Procedure, shortened: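 After 5-10 min pre-incubation of FGFR3 with serially diluted compound in pH 7.5 HEPES/MgCl2/EGTA/DTT buffer, the reaction proceeded 1 hr at 25° C. Phosphorylated peptide was detected by FRET, and IC50 was fitted with a variable-slope sigmoid.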

FGFR2 = FGFR2 (Homo sapiens (Human), UniProt P21802); assay: FGFR enzymatic assay (FRET peptide phosphorylation), FGFR2; details: FGFR2 enzyme 0.01 nM, ATP 100 μM
Sequence of FGFR2 (P21802 22-821): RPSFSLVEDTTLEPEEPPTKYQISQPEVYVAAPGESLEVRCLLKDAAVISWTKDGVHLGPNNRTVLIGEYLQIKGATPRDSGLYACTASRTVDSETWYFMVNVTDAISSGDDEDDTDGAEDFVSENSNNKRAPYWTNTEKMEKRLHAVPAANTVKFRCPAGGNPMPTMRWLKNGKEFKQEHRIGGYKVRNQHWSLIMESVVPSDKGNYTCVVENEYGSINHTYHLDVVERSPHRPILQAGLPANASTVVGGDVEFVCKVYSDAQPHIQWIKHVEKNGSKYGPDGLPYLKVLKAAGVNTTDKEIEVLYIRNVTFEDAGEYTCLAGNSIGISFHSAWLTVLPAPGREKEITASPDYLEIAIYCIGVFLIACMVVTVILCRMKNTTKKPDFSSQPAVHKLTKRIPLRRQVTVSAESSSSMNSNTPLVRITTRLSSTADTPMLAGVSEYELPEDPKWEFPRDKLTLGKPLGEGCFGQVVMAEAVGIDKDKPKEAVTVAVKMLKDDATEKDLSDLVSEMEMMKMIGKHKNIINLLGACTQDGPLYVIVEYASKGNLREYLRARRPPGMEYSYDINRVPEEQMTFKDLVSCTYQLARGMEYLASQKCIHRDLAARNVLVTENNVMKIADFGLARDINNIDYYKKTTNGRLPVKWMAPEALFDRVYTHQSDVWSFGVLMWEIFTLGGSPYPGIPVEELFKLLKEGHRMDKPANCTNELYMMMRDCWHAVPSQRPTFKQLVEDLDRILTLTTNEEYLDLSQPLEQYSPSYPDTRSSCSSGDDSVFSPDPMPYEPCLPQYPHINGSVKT
Procedure, shortened: as §1

Sequence of FGFR1 (P11362 22-822): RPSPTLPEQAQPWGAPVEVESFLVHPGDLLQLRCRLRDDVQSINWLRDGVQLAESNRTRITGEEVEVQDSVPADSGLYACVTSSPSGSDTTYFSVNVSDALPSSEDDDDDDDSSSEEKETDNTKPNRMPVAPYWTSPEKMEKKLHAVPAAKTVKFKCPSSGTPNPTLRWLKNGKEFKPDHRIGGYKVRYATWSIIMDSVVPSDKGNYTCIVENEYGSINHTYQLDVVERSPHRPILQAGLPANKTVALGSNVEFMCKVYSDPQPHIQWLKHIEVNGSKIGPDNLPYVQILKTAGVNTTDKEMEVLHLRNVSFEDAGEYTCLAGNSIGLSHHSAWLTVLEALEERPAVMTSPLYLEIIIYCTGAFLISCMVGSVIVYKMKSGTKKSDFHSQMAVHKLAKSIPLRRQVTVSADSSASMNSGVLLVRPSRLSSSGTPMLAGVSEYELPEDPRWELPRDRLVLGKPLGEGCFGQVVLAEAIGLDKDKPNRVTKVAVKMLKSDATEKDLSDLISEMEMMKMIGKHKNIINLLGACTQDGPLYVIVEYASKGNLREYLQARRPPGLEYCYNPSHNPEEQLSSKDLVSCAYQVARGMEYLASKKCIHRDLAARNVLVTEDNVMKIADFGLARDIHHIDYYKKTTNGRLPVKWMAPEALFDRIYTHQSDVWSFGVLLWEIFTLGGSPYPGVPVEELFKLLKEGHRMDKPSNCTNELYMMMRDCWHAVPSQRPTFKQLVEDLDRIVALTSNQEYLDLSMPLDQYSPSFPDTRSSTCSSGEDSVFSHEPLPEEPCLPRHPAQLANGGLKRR

IC50 (FGFR1)	IC50 (FGFR3)	IC50 (FGFR2)	Structure (SMILES)
< 0.1 µM	< 0.1 µM	< 0.1 µM	COc1cc(OC)c(F)c(N2Cc3cnc4[nH]c(C(=O)NC5CC5)cc4c3N(C)C2=O)c1 [Example 27, N-Cyclopropyl-3-(2-fluoro-3,5-dimethoxyphenyl)-1-methyl-2-oxo-2,3,4,7-tetrahydro-1H-pyrrolo[3′,2′:5,6]pyrido[4,3-d]pyrimidine-8-carboxamide]
< 0.1 µM	< 0.1 µM	< 0.1 µM	COc1cc(OC)c(F)c(N2Cc3cnc4[nH]c(CCN5CCOCC5)cc4c3C(C)(C)C2=O)c1F [Example 158, 7-(2,6-difluoro-3,5-dimethoxyphenyl)-9,9-dimethyl-2-(2-morpholin-4-ylethyl)-3,6,7,9-tetrahydro-8H-pyrrolo[2,3-c]-2,7-naphthyridin-8-one]
< 0.1 µM	< 0.1 µM	< 0.1 µM	COc1cc(OC)c(F)c(N2Cc3cnc4[nH]c(C(=O)N(C)C)cc4c3N(C)C2=O)c1F [Example 35, 3-(2,6-Difluoro-3,5-dimethoxyphenyl)-N,N,1-trimethyl-2-oxo-2,3,4,7-tetrahydro-1H-pyrrolo[3′,2′:5,6]pyrido[4,3-d]pyrimidine-8-carboxamide]
< 0.1 µM	< 0.1 µM	< 0.1 µM	COc1cc(OC)c(F)c(N2Cc3cnc4[nH]c(CN5CCN(C)CC5)cc4c3N(c3cccc(F)c3F)C2=O)c1F [Example 192, 3-(2,6-difluoro-3,5-dimethoxyphenyl)-1-(2,3-difluorophenyl)-8-[(4-methylpiperazin-1-yl)methyl]-1,3,4,7-tetrahydro-2H-pyrrolo[3′,2′:5,6]pyrido[4,3-d]pyrimidin-2-one]
< 0.1 µM	< 0.1 µM	< 0.1 µM	COc1cc(OC)c(F)c(N2Cc3cnc4[nH]c(C(=O)N5CCN(C)CC5)cc4c3N(C)C2=O)c1F [Example 40, 3-(2,6-Difluoro-3,5-dimethoxyphenyl)-1-methyl-8-[(4-methylpiperazin-1-yl)carbonyl]-1,3,4,7-tetrahydro-2H-pyrrolo[3′,2′:5,6]pyrido[4,3-d]pyrimidin-2-one]
< 0.1 µM	< 0.1 µM	< 0.1 µM	COc1cc(OC)c(F)c(N2Cc3cnc4[nH]cc(-c5cnn(C)c5)c4c3N(C)C2=O)c1F [Example 43, 3-(2,6-Difluoro-3,5-dimethoxyphenyl)-1-methyl-9-(1-methyl-1H-pyrazol-4-yl)-1,3,4,7-tetrahydro-2H-pyrrolo[3′,2′:5,6]pyrido[4,3-d]pyrimidin-2-one]
< 0.1 µM	< 0.1 µM	< 0.1 µM	COc1cc(OC)c(F)c(N2Cc3cnc4[nH]ccc4c3N(c3cccnc3)C2=O)c1F [Example 83, 3-(2,6-difluoro-3,5-dimethoxyphenyl)-1-pyridin-3-yl-1,3,4,7-tetrahydro-2H-pyrrolo[3′,2′:5,6]pyrido[4,3-d]pyrimidin-2-one]
< 0.1 µM	< 0.1 µM	< 0.1 µM	COc1cc(OC)c(F)c(N2Cc3cnc4[nH]c(CN5CC[C@H](C#N)C5)cc4c3N(C)C2=O)c1F [Example 133, (3S)-1-{[3-(2,6-difluoro-3,5-dimethoxyphenyl)-1-methyl-2-oxo-2,3,4,7-tetrahydro-1H-pyrrolo[3′,2′:5,6]pyrido[4,3-d]pyrimidin-8-yl]methyl}pyrrolidine-3-carbonitrile]
< 0.1 µM	< 0.1 µM	< 0.1 µM	COc1cc(OC)c(F)c(N2Cc3cnc4[nH]ncc4c3N(Cc3cscn3)C2=O)c1F [Example 163, 3-(2,6-Difluoro-3,5-dimethoxyphenyl)-1-(1,3-thiazol-4-ylmethyl)-1,3,4,7-tetrahydro-2H-pyrazolo[4′,3′:5,6]pyrido[4,3-d]pyrimidin-2-one]
< 0.1 µM	< 0.1 µM	< 0.1 µM	COc1cccc(CN2C(=O)N(c3c(F)c(OC)cc(OC)c3F)Cc3cnc4[nH]ncc4c32)n1 [Example 176, 3-(2,6-difluoro-3,5-dimethoxyphenyl)-1-[(6-methoxypyridin-2-yl)methyl]-1,3,4,7-tetrahydro-2H-pyrazolo[4′,3′:5,6]pyrido[4,3-d]pyrimidin-2-one]
< 0.1 µM	< 0.1 µM	< 0.1 µM	COc1cc(OC)c(F)c(N2Cc3cnc4[nH]c(CCN5CCCC5)cc4c3N(C)C2=O)c1F [Example 116, 3-(2,6-difluoro-3,5-dimethoxyphenyl)-1-methyl-8-(2-pyrrolidin-1-ylethyl)-1,3,4,7-tetrahydro-2H-pyrrolo[3′,2′:5,6]pyrido[4,3-d]pyrimidin-2-one]
< 0.1 µM	< 0.1 µM	< 0.1 µM	COc1cc(OC)c(F)c(N2Cc3cnc4[nH]ncc4c3N(c3ncccc3F)C2=O)c1F [Example 218, 3-(2,6-Difluoro-3,5-dimethoxyphenyl)-1-(3-fluoropyridin-2-yl)-1,3,4,7-tetrahydro-2H-pyrazolo[4′,3′:5,6]pyrido[4,3-d]pyrimidin-2-one]
< 0.1 µM	< 0.1 µM	< 0.1 µM	COc1cc(OC)c(F)c(N2Cc3cnc4[nH]c(CCN5CCOCC5)cc4c3N(c3ccccc3F)C2=O)c1F [Example 196, 3-(2,6-difluoro-3,5-dimethoxyphenyl)-1-(2-fluorophenyl)-8-(2-morpholin-4-ylethyl)-1,3,4,7-tetrahydro-2H-pyrrolo[3′,2′:5,6]pyrido[4,3-d]pyrimidin-2-one]
< 0.1 µM	< 0.1 µM	< 0.1 µM	COc1cc(OC)c(F)c(N2Cc3cnc4[nH]nc(C)c4c3N(C)C2=O)c1F [Example 52, 3-(2,6-Difluoro-3,5-dimethoxyphenyl)-1,9-dimethyl-1,3,4,7-tetrahydro-2H-pyrazolo[4′,3′:5,6]pyrido[4,3-d]pyrimidin-2-one]
< 0.1 µM	< 0.1 µM	< 0.1 µM	COc1cc(OC)c(F)c(N2Cc3cnc4[nH]c(C(=O)N5CCN(C)CC5)cc4c3N(C)C2=O)c1 [Example 30, 3-(2-Fluoro-3,5-dimethoxyphenyl)-1-methyl-8-[(4-methylpiperazin-1-yl)carbonyl]-1,3,4,7-tetrahydro-2H-pyrrolo[3′,2′:5,6]pyrido[4,3-d]pyrimidin-2-one]
< 0.1 µM	< 0.1 µM	< 0.1 µM	COc1cc(OC)c(F)c(N2Cc3cnc4[nH]ncc4c3NC2=O)c1F [Example 99, 3-(2,6-difluoro-3,5-dimethoxyphenyl)-1,3,4,7-tetrahydro-2H-pyrazolo[4′,3′:5,6]pyrido[4,3-d]pyrimidin-2-one]
< 0.1 µM	< 0.1 µM	< 0.1 µM	COc1cc(OC)c(F)c(N2Cc3cnc4[nH]c(CCN5CCN(C)CC5)cc4c3C(C)(C)C2=O)c1F [Example 160, 7-(2,6-difluoro-3,5-dimethoxyphenyl)-9,9-dimethyl-2-[2-(4-methylpiperazin-1-yl)ethyl]-3,6,7,9-tetrahydro-8H-pyrrolo[2,3-c]-2,7-naphthyridin-8-one]
< 0.1 µM	< 0.1 µM	< 0.1 µM	COc1cc(OC)c(F)c(N2Cc3cnc4[nH]ncc4c3N(Cc3ccon3)C2=O)c1F [Example 162, 3-(2,6-Difluoro-3,5-dimethoxyphenyl)-1-(isoxazol-3-ylmethyl)-1,3,4,7-tetrahydro-2H-pyrazolo[4′,3′:5,6]pyrido[4,3-d]pyrimidin-2-one]
< 0.1 µM	< 0.1 µM	< 0.1 µM	COc1cc(OC)c(F)c(N2Cc3cnc4[nH]cc(CC#N)c4c3N(C)C2=O)c1F [Example 105, [3-(2,6-difluoro-3,5-dimethoxyphenyl)-1-methyl-2-oxo-2,3,4,7-tetrahydro-1H-pyrrolo[3′,2′:5,6]pyrido[4,3-d]pyrimidin-9-yl]acetonitrile]
< 0.1 µM	< 0.1 µM	< 0.1 µM	COc1cc(OC)c(F)c(N2Cc3cnc4[nH]c(C(=O)N(C)C)cc4c3N(C)C2=O)c1 [Example 34, 3-(2-Fluoro-3,5-dimethoxyphenyl)-N,N,1-trimethyl-2-oxo-2,3,4,7-tetrahydro-1H-pyrrolo[3′,2′:5,6]pyrido[4,3-d]pyrimidine-8-carboxamide]
< 0.1 µM	< 0.1 µM	< 0.1 µM	COc1cc(OC)c(F)c(N2Cc3cnc4[nH]c(CN5CCOCC5)cc4c3N(c3ccccc3F)C2=O)c1F [Example 180, 3-(2,6-difluoro-3,5-dimethoxyphenyl)-1-(2-fluorophenyl)-8-(morpholin-4-ylmethyl)-1,3,4,7-tetrahydro-2H-pyrrolo[3′,2′:5,6]pyrido[4,3-d]pyrimidin-2-one]
< 0.1 µM	< 0.1 µM	< 0.1 µM	COc1cc(OC)cc(N2Cc3cnc4[nH]c(C(=O)N5CC(O)C5)cc4c3N(C)C2=O)c1 [Example 20, 3-(3,5-Dimethoxyphenyl)-8-[(3-hydroxyazetidin-1-yl)carbonyl]-1-methyl-1,3,4,7-tetrahydro-2H-pyrrolo[3′,2′:5,6]pyrido[4,3-d]pyrimidin-2-one]
< 0.1 µM	< 0.1 µM	< 0.1 µM	COc1cc(OC)c(F)c(N2Cc3cnc4[nH]c(CN5CCN(C)CC5)cc4c3N(CCF)C2=O)c1F [Example 233, 3-(2,6-difluoro-3,5-dimethoxyphenyl)-1-(2-fluoroethyl)-8-[(4-methylpiperazin-1-yl)methyl]-1,3,4,7-tetrahydro-2H-pyrrolo[3′,2′:5,6]pyrido[4,3-d]pyrimidin-2-one]
< 0.1 µM	< 0.1 µM	< 0.1 µM	COc1cc(OC)c(F)c(N2Cc3cnc4[nH]ccc4c3N(Cc3ccccn3)C2=O)c1F [Example 78, 3-(2,6-difluoro-3,5-dimethoxyphenyl)-1-(pyridin-2-ylmethyl)-1,3,4,7-tetrahydro-2H-pyrrolo[3′,2′:5,6]pyrido[4,3-d]pyrimidin-2-one]
